The numbers were not newly measured in US20110098303A1, “Method of promoting nail growth using thyromimetic compounds” (priority 2002, published 2011), which cites them from elsewhere.

Data set [1] relates to nail growth. As to conditions: in vivo.
The subject of data set [2] is AGA mouse. To be noted: topical treatment.
For data set [3], the system named is mice.

For `N[C@@H](Cc1ccc(O)c(O)c1)C(=O)O` [I-dopa], the “rate of nail growth” value in data set [1] is recorded as “accelerate the rate of nail growth”. Turning to `N[C@@H](Cc1cc(I)c(Oc2ccc(O)c(I)c2)c(I)c1)C(=O)O` [T3, 3,5,3′-triiodo-L-thyronine], the “effect on testosterone induced alopecia” value in data set [2] is “inhibitory effect”. Further, in data set [3] (administered locally, directly to the skin), the hair growth entry is recorded as “dramatic acceleration of hair growth”. For the same compound, in data set [3] (systemically administered), the growth of hair result was “inhibits the growth of hair”. `O=C(O)CCCC[C@@H]1SC[C@@H]2NC(=O)N[C@@H]21` [biotin]: the “rate of nail growth” value in data set [1] is given as “accelerate the rate of nail growth”. With `N[C@@H](CSSC[C@H](N)C(=O)O)C(=O)O` [cystine], the “rate of nail growth” value in data set [1] is reported as “accelerate the rate of nail growth”.

In the case of `CSCC[C@H](N)C(=O)O` [methionine], the “rate of nail growth” value in data set [1] is “accelerate the rate of nail growth”.
